Results taken from patent US6825230B2, “Spiro and dispiro 1,2,4-trixolane antimalarials” (Medicines for Malaria Venture MMV, priority 2002, dated 2004).
In brackets after ≈: the same amount, converted by molar mass.

Tests used:
[1] = test system: ANKA strain of P. berghei; assay: Single dose STI in vivo screen in infected mice; design: species or system Plasmodium berghei; details: 10 mg/kg
[2] = test system: ANKA strain of Plasmodium berghei; assay: Single dose ED50/ED90/ED99 determination in infected mice; assay type: in vivo
How it was run: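 Moro SPF or NMRI mice (three per group) infected with P. berghei ANKA were dosed once on day 1 post-infection in SSV (0.5% CMC, 0.5% benzyl alcohol, 0.4% Tween 80, 0.9% NaCl). Parasitemia reduction was scored on day 3; ED values (mg/kg) came from nonlinear fitting.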

[3] = Pharmacokinetics in dogs (IV and oral dosing); details: in vivo, dog; for bioavailability: some values marked (V), not defined
From the text: (§1) Artesunate is listed as a reference compound.

P. berghei ANKA strain [4] = assay: Prophylactic activity, single 100 mg/kg po at various times before infection; assay type: in vivo, Plasmodium berghei
[5] = test system: Schistosoma mansoni adult worms (49-day-old); assay: Effect on adult schistosomes (49-day-old) in infected mice; assay type: in vivo
Description: Mice were infected with 100 Schistosoma mansoni cercariae on day 49 post-treatment. Each group was treated per os with OZ compounds at single doses of 200, 400, and 600 mg/kg. Untreated mice served as the control. All groups were killed 4 weeks after treatment and the liver and intestine were removed and separated. The liver and intestine were compressed and alive male and female worms could be seen and counted.

[6] = test system: chloroquine-resistant K1 strain of P. falciparum; assay: In vitro antimalarial semiautomated microdilution assay ([3H]-hypoxanthine incorporation), K1 strain; assay type: cell-based, Plasmodium falciparum; details: Plasmodium falciparum; chloroquine-resistant K1 strain, 72 h incubation; read-out: IC50 (ng/ml) K1
How it was run: (§2)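 Asynchronous stock-culture parasites (intraerythrocytic forms), serial compound dilutions; readout [3H]-hypoxanthine uptake; IC50 via Logit regression.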

[7] = test system: chloroquine-sensitive NF54 strain of P. falciparum; assay: In vitro antimalarial semiautomated microdilution assay ([3H]-hypoxanthine incorporation), NF54 strain; assay type: cell-based, Plasmodium falciparum; details: Plasmodium falciparum; chloroquine-sensitive NF54 strain, 72 h incubation; read-out: IC50 (ng/ml) NF54
How it was run: as §2

[8] = Pharmacokinetics in rats (IV and oral dosing); details: rat, in vivo
From the text: as §1

P. berghei ANKA strain [9] = assay: Divided 3x3 mg/kg and 3x1 mg/kg po doses in infected mice; assay type: in vivo, Plasmodium berghei
How it was run: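 Male NMRI mice were infected i.v. with 2×10^7 P. berghei-parasitized erythrocytes on day 0, then dosed orally in SSV vehicle on days 1, 2 and 3 post-infection.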

P. berghei ANKA strain [10] = assay: Divided 3x10 mg/kg vs single 1x30 mg/kg po dose in infected mice; assay type: in vivo, Plasmodium berghei

NC[C@H]1CC[C@]2(CC1)OOC1(O2)C2CC3CC(C2)CC1C3 (stereo partly drawn) [OZ209]
Survival (days) 10 mg/kg po ([1]; single 10 mg/kg po in 3% ethanol and 7% Tween 80, untreated 6-7 days): 9.5 days | Activity (%) 10 mg/kg po ([1]; single 10 mg/kg po in 3% ethanol and 7% Tween 80 on day 1 post-infection, percent reduction in parasitemia on day 3): 99.94% | Survival (days) 10 mg/kg SSV po ([1]; single 10 mg/kg po in SSV, untreated 6-7 days): 10.0 days | Activity (%) 10 mg/kg SSV po ([1]; single 10 mg/kg po in standard suspending vehicle (SSV) on day 1 post-infection, percent reduction in parasitemia on day 3): 99.96% | Survival (days) 10 mg/kg sc ([1]; single 10 mg/kg sc in 3% ethanol and 7% Tween 80, untreated 6-7 days): 12.5 days | Activity (%) 10 mg/kg sc ([1]; single 10 mg/kg sc in 3% ethanol and 7% Tween 80 on day 1 post-infection, percent reduction in parasitemia on day 3): 99.97% | ED50 ([2]; Plasmodium berghei, single dose po in SSV on day 1 post-infection, parasitemia day 3, nonlinear fitting, read-out: ED50): 0.55 mg/kg | ED90 ([2]; po): 1.4 mg/kg | ED99 ([2]; single dose po in SSV on day 1 post-infection, parasitemia day 3, nonlinear fitting): 3.0 mg/kg | half-life ([3]; IV 10 mg/kg): 3.05 h | half-life ([3]; oral 10 mg/kg): 2.12 h | bioavailability ([3]; oral 10 mg/kg, read-out: Dog Oral Bioavailability 10 mg/kg): 24.5% | bioavailability ([3]; oral 25 mg/kg, read-out: Dog Oral Bioavailability 25 mg/kg): 15.9% | Prophylactic Activity (%) 72 h (P. berghei ANKA strain [4]; po, 100 mg/kg): 99.92% | Duration of prophylactic protection (P. berghei ANKA strain [4]; single 100 mg/kg po): 3 days | Prophylactic Activity (%) 24 h (P. berghei ANKA strain [4]; single 100 mg/kg po 24 h before infection, parasitemia reduction on day 3 post-infection): 100% | Prophylactic Activity (%) 48 h (P. berghei ANKA strain [4]; single 100 mg/kg po 48 h before infection, parasitemia reduction on day 3 post-infection): 99.9% | Prophylactic Activity (%) 0 h (P. berghei ANKA strain [4]; single 100 mg/kg po at 0 h, parasitemia reduction on day 3 post-infection): 100% | % reduction of adult worms growth at day 49 after per os application of 200 mg/kg, TWR (%) ([5]; single 200 mg/kg per os, 49-day-old adults, total worm reduction rate): 39% | Adult worms day 49, per os 200 mg/kg, DEAD WORM (%) ([5]; single 200 mg/kg per os, percentage of dead worm in the liver): 34% | % reduction of adult worms growth at day 49 after per os application of 400 mg/kg, TWR (%) ([5]; single 400 mg/kg per os, 49-day-old adults, total worm reduction rate): 16% | Adult worms day 49, per os 400 mg/kg, DEAD WORM (%) ([5]; single 400 mg/kg per os, percentage of dead worm in the liver): 28% | % reduction of adult worms growth at day 49 after per os application of 600 mg/kg, TWR (%) ([5]; single 600 mg/kg per os, 49-day-old adults, total worm reduction rate): 41/ % | Adult worms day 49, per os 600 mg/kg, DEAD WORM (%) ([5]; single 600 mg/kg per os, percentage of dead worm in the liver): 21++ % | IC50 [6]: 0.21 ng/mL (≈ 0.716 nM) | IC50 [7]: 0.32 ng/mL (≈ 1.09 nM) | half-life ([8]; iv, 10 mg/kg): 2.5 h | bioavailability ([8]; po, 10 mg/kg): 12.4% | bioavailability ([8]; po, 25 mg/kg): 22.4% | half-life ([8]; po, 25 mg/kg): 1.69 h | Activity at the 3×3 mg/kg dose (P. berghei ANKA strain [9]; 3 mg/kg po (SSV) on days 1, 2, 3 post-infection, parasitemia reduction on day 4): 100% | Survival (P. berghei ANKA strain [9]; 3 × 1 mg/kg p.o. SSV on days 1, 2, 3 post-infection): 9.4 days | Survival (P. berghei ANKA strain [9]; 3 × 3 mg/kg p.o. SSV on days 1, 2, 3 post-infection): 16.4 days | Activity (%) (P. berghei ANKA strain [9]; 3 × 3 mg/kg p.o. SSV on days 1, 2, 3 post-infection, percent reduction of parasitemia vs control on day 4): 100% | Activity (%) (P. berghei ANKA strain [9]; po, 1 mg/kg, 96 h): 99.51% | Cures (P. berghei ANKA strain [9]; po, 3 mg/kg, 720 h): 0\5 | Survival (days) 3 × 10 mg/kg p.o. SSV (P. berghei ANKA strain [10]; 10 mg/kg po on days 1, 2, 3 post-infection): >30 days | Activity (%) 3 × 10 mg/kg p.o. SSV (P. berghei ANKA strain [10]; po, 10 mg/kg, 96 h): 100% | Cures 3 × 10 mg/kg p.o. SSV (P. berghei ANKA strain [10]; po, 10 mg/kg, 720 h): 3\3 | Activity (%) 1 × 30 mg/kg p.o. SSV (P. berghei ANKA strain [10]; po, 30 mg/kg): 100% | Cures 1 × 30 mg/kg p.o. SSV (P. berghei ANKA strain [10]; po, 30 mg/kg, 720 h): 0/5 | Survival (days) 1 × 30 mg/kg p.o. SSV (P. berghei ANKA strain [10]; single 30 mg/kg po on day 1 post-infection): >30 days
